# Data published in patent US7871987B2, “Ester derivatives of ascorbic and 2-keto acid saccharides” (Dow Corning Corporation, priority 2004, dated 2011).
# “And” between values parts separate entries of the source, which are not always exact repeats. Equal entries are not always repeated.
# How the values were obtained:
# [1] = tested on: Melanoderm tissue model MEL 300 A; experiment: Viability by MTT assay (MatTek MTT ET-50 protocol); format: cell-based, human; conditions: for MTT reading (individual readings): listed as DP2/DMI
# Description: (§1) This example illustrates cell viability properties and efficacy of skin lightening formulations according to the present invention. For purposes of these examples, DP2 and DP15 both refer to a bis-ascorbyl ester of a (10-carboxydecyl)-terminated dimethylsiloxane, but with the former having two degrees of polymerization, and the latter having an average of 15 degrees of polymerization (15+/−5). In particular, three formulations according to the present invention, water (a negative control), 1% kojic acid (Sigma, Wis.) in water (positive control), and 2.3% ascorbyl palmitate in DMI (dimethyl isosorbide from Uniqema Americas, representative of a currently commercially available skin-lightening compound), were assayed and compared for cell viability and skin lightening efficacy (see Table 4). The assays were carried out using Melanoderm tissue model MEL 300 A cell line (MelanoDerm™ tissue model available from MatTek, Ashland, Mass.). This melanoderm model consists of normal, human-derived epidermal keratinocytes and melanocytes that have been co-cultured to form a multilayer, highly differentiated model of human epidermis.
# Duplicate samples of each of the formulations in Table 4 were dosed and tested for 48 hours for cell viability by MTT assay (MatTek MTT ET-50 protocol). The volume of water and kojic acid used was 25 ul.
# [2] = Dispersibility in carriers (caprylic/capric triglyceride, cyclopentasiloxane, deionized water); format: physicochemical
# Method: a) Approximately 7.2 g of a sample of a material of the present invention comprising an undecyl ascorbate group on one end of the short chain dimethylsiloxane (Formula=Si(CH3)3-[Si(CH3)2]8—[CH2]10—COO-Ascorbate), with a calculated molecular weight of 1082) was weighed into a glass vial. Liponate CG (INCI name: caprylic/capric triglyceride) was added to the vial to bring the net weight to 20 g. The vial was warmed in a water bath set at 50° C. […] A sample of ascorbyl palmitate obtained from DSM was also tested for dispersibility in Liponate CG. Several concentrations were tested. The lowest concentration tested was made by weighing approximately 2.3 g of ascorbyl palmitate into a glass vial and then adding caprylic/capric triglyceride to bring the net weight to 20 g. […] The silicone was added to the vial to bring the net weight to 20 g. […] This mixture thickened upon cooling to room temperature. To determine if the mixture was a stable dispersion or an unstable suspension, the mixture was centrifuged in a bench top laboratory centrifuge at 3000 rpm for approximately 30 minutes. […] The amount of white material was small (much less than the amount of siloxane undecyl ascorbate that was used) and it was later determined that the white material was most likely unreacted ascorbic acid. A sample of ascorbyl palmitate obtained from DSM was tested for dispersibility in Dow Corning® 245 Fluid. Several concentrations were tested. The lowest concentration tested was made by weighing approximately 2.3 g of ascorbyl palmitate into a glass vial and then adding Dow Corning® 245 Fluid to bring the net weight to 20 g. […] Deionized water was added to bring the total net weight to 3.5 g. The vial was placed in a water bath set at 60° C. and the disiloxane material began to disperse after a few minutes. The vial was pulled out of the water bath periodically over the next 10-15 minutes. […] Upon cooling the vial was examined to determine if all of the test material had been dispersed. It was difficult to tell due to the hazy appearance of the sample. The experiment was repeated with approximately 0.17 of the disiloxane diluted to 3.5 g with deionized water. […] Ascorbyl palmitate obtained from DSM was tested for dispersibility in deionized water.
# [3] = tested on: Melanoderm tissue model MEL 300 A; experiment: Melanin content / skin lightening assay in MelanoDerm tissue model; format: cell-based, human; conditions: for Melanin concentration vs. water: Day 10, after 6 applications; for Melanin Concentration at Day 10 (Avg.): after 6 applications, 10 μL in DMI (kojic acid 25 μL, 1% in water)
# Description: as §1
# Table 6 (see FIG. 4(a)) sets forth the […] after 6 applications of each formulation as indicated. Melanin concentration (ug/ml) was lower (p<0.05) in the positive control (kojic acid) and in Ascorbyl palmitate, DP2, and DP2+ascorbic acid. Table 7 (see FIG. 4(b) also sets forth the melanocyte concentration on Day 10, after six applications of the test formulations. Melanin concentration (ug/ml) was higher (p<0.05) in DP2, with no difference from DP2+ascorbic acid or DPI 5. However, p value for DP15 had high variability and statistical difference was borderline (p=0.06)
# [4] = approximately 2.3 g brought to 20 g (lowest concentration), 50° C. to 90° C. for 20-30 minutes
# [5] = first duplicate sample, 10 uL dose, 48 hours
# [6] = second duplicate sample, 10 uL dose, 48 hours
compound,measurement,setting,value
"CCCCCCCCCCCCCCCC(=O)OC[C@H](O)[C@H]1OC(=O)C(O)=C1O [Ascorbyl Palmitate, Ascorbyl palmitate, reference compound]",% Viability (total average),"[1]; human, 48 h, 2.3 %",96.04%
same,Total average (MTT reading),"[1]; human, 48 h, 2.3 %",1.4495
same,dispersibility in Dow Corning 245 Fluid (cyclopentasiloxane),[2]; [4],would not disperse
same,dispersibility in Liponate CG (caprylic/capric triglyceride),[2]; [4],would not disperse
same,dispersibility in deionized water,[2]; concentrations comparable to those tested for the disiloxane test material,not dispersible
same,Melanin concentration vs. water,[3]; p<0.05,lower
same,Melanin Concentration at Day 10 (Avg.),[3],34.14 µg/mL
"C[Si](C)(CCCCCCCCCCC(=O)OCC(O)C1OC(=O)C(O)=C1O)O[Si](C)(C)CCCCCCCCCCC(=O)OCC(O)C1OC(=O)C(O)=C1O (stereo not shown) [DP2, bis-ascorbyl ester of a (10-carboxydecyl)-terminated dimethylsiloxane]",cytotoxicity,"[1]; 10 uL dose, in DMI",does not cause cytotoxicity
same,Total average (MTT reading),"[1]; both duplicate samples, 10 uL dose, 48 hours",1.514
same,% Viability (total average),"[1]; both duplicate samples, vs water, 10 uL dose, 48 hours",100.31%
same,Average (MTT reading),[1]; [5],1.417
same,MTT reading (individual readings),[1]; [5],1.433 and 1.401
same,% Viability,"[1]; first duplicate sample, vs water, 10 uL dose, 48 hours",91.24%
same,cell viability,[1]; in DMI,> 90%
same,Average (MTT reading),[1]; [6],1.611
same,MTT reading (individual readings),[1]; [6],1.619 and 1.603
same,% Viability,"[1]; second duplicate sample, vs water, 10 uL dose, 48 hours",109.93%
same,dispersibility in deionized water,"[2]; approximately 0.17 diluted to 3.5 g, warmed in water bath","thinner, less hazy dispersion"
same,dispersibility in deionized water,"[2]; approximately 0.35 g brought to 3.5 g, water bath 60° C.",thick hazy dispersion
same,stability of dispersions in deionized water,"[2]; both dispersions, no sign of separation or settling",stable for several weeks
same,Melanin concentration vs. water,[3]; p<0.05,lower
same,Melanin concentration vs. ascorbyl palmitate,"[3]; Day 10, after six applications, p<0.05",higher
same,Melanin Concentration at Day 10 (Avg.),[3],44.40 µg/mL
"O=c1cc(CO)occ1O [Kojic Acid, kojic acid]",Melanin concentration vs. water,[3]; p<0.05,lower
same,Melanin Concentration at Day 10 (Avg.),[3],25.20 µg/mL
